# Measurements from publication PMC3979416 (The Journal of Biological Chemistry, 2014).
# Where two headings read alike, the source gives them in different places.
# Legend:
# BRD4 = test: TR-FRET displacement of the H4 peptide by the JQ1-TAMRA probe; assay type: binding, human; settings: data not shown
# BRD4 wild type = test: FRAP of GFP-BRD4 wild type with JQ1; assay type: cell-based, human; settings: U2OS cells, 1 μM JQ1 1 h before imaging
# Description: For the photobleaching experiments we used full-length human BRD4 cDNA (RefSeq NM_058243.2) cloned into the pcDNA6.2/N-EmGFP-DEST plasmid (Invitrogen) by the Gateway technology (Invitrogen) to create a chimeric green fluorescent protein (GFP)/wild-type BRD4 expression construct. […] The synthesized DNA fragments were cloned into the pTT5 ([49]) destination vector using a lambda site-specific recombination system (LR-recombination, Gateway Technology, Invitrogen). Plasmid DNA was prepared using the QIAprep Spin Miniprep kit (Qiagen).
# FRAP studies were performed using a protocol modified from previous work ([17], [55]). In brief, U2OS cells were reverse-transfected (Lipofectamine 2000, Invitrogen) with mammalian expression constructs encoding chimeric GFP-BRD4 (wild type or mutants). […] The average intensity at each imaging time point was measured for three regions of interest: the bleached region (It), the total cell nucleus (Tt), and a random region outside of the cell for background subtraction (BG). […] The base line was normalized to zero, and the prebleach was normalized to 1. Normalized data were imported into GraphPad Prism 6.0, and half-times of recovery (t½) were calculated from individual single exponential curve fits for each cell and presented as the mean for each group. p values were calculated using an unpaired t test.
# BRD4 BD1 mutants [1] = test: Thermal shift assay with JQ1, mutants as a group; assay type: binding, human; settings: 100 μM JQ1
# Description: In a typical TSA, 0.4 μg of BRD4 BD1 protein were mixed with 5× Sypro Orange (Molecular Probe) and adjusted to a final volume of 5 μl with 100 mM HEPES buffer, pH 7.5 (Applichem), and 150 mM NaCl (Sigma). […] To protect samples from evaporation, they were overlaid with 1 μl of silicone oil DC200 (Sigma). […] For data analysis, melting curves (fluorescence intensity changes at increasing temperatures) were fitted using a first derivative method ([51]) to determine the melting point Tm and the unfolding enthalpy ΔHu using the evaluation software provided by the manufacturer of the instrument. A series of thermal melting curves was collected in the presence of varying inhibitor concentrations.
# (§1) Standard free energy of binding (ΔG°) and entropy (ΔS°) were calculated with the equations ΔG° = −RTln(1/KD°) and −TΔS° = ΔG° × ΔH°b. To facilitate comparisons dΔG° was also calculated: dΔG° = ΔG° (mt) − ΔG° (WT).
# BRD4 BD1 mutants [2] = assay type: cell-based, human
# Description: (§2) For the cellular stabilization assays, the codon-optimized sequence of the wild-type and mutant versions of BRD4 BD1 (amino acids 44–166) flanked by an N-terminal His6 tag and a C-terminal FLAG tag and by 5′ and 3′ site-specific attachment sites for recombination using the Gateway technology (Invitrogen) were prepared by total DNA synthesis (GeneArt). The synthesized DNA fragments were cloned into the pTT5 ([49]) destination vector using a lambda site-specific recombination system (LR-recombination, Gateway Technology, Invitrogen). Plasmid DNA was prepared using the QIAprep Spin Miniprep kit (Qiagen).
# (§3) HEK293–6E cells (Yves Durocher, National Research Council Canada) were grown in suspension with gentle shaking in FreeStyle F17 medium (Invitrogen) containing 4 mM L-alanyl-L-glutamine (BioChrom AG) and 0.1% Pluronic (Invitrogen). For transfection with DNA, 10 ml of cell suspension at a density of 10^6 cells/ml were prepared. […]
# (§4) Plates were incubated at room temperature in the dark for 2 h. Time-resolved fluorescence was measured with a PHERAstar FS microplate reader (BMG Labtech) using the homogeneous time-resolved fluorescence module (excitation 337 nm, emission 1: 620 nm; emission 2: 665 nm). […]
# BRD4 BD1 wild type [3] = settings: pH 7.5
# BRD4 BD1 W81A [4] = target: T1, BRD4 BD1 W81A (Homo sapiens, UniProt O60885, W81A)
# BRD4 BD1 P82A [5] = target: T2, BRD4 BD1 P82A (Homo sapiens, UniProt O60885, P82A)
# BRD4 BD1 L94A [6] = target: T3, BRD4 BD1 L94A (Homo sapiens, UniProt O60885, L94A)
# BRD4 BD1 Y139F [7] = target: T4, BRD4 BD1 Y139F (Homo sapiens, UniProt O60885, Y139F)
# BRD4 BD1 D144A [8] = target: T5, BRD4 BD1 D144A (Homo sapiens, UniProt O60885, D144A)
# BRD4 BD1 D145A [9] = target: T6, BRD4 BD1 D145A (Homo sapiens, UniProt O60885, D145A)
# BRD4 BD1 I146A [10] = target: T7, BRD4 BD1 I146A (Homo sapiens, UniProt O60885, I146A)
# BRD4 BD1 M149A [11] = target: T8, BRD4 BD1 M149A (Homo sapiens, UniProt O60885, M149A)
# BRD4 BD1 mutants [12] = tested on: BRD4 BD1 mutants
# Description: After 30 min of incubation at room temperature, the plates were measured in a Tecan M1000 plate reader using its FP module and excitation/emission wavelengths of 530 and 570 nm, respectively. For KD determinations the background-corrected polarization values were plotted against the concentrations of BRD4, and the data were fitted to a one-site binding equation: Y = Bmax × X/(KD + X), where Y is the specific binding, and Bmax is the maximal binding, using the GraphPad Prism software. Free energy of binding ΔG was calculated as described above.
# BRD4 BD1 wild type [13] = settings: WT, TSA
# Description: (§5) In a typical TSA, 0.4 μg of BRD4 BD1 protein were mixed with 5× Sypro Orange (Molecular Probe) and adjusted to a final volume of 5 μl with 100 mM HEPES buffer, pH 7.5 (Applichem), and 150 mM NaCl (Sigma). […] To protect samples from evaporation, they were overlaid with 1 μl of silicone oil DC200 (Sigma). Melting curves were recorded using a ThermoFluor system (Johnson and Johnson Pharmaceutical Research and Development) after heating the samples from 25 up to 95 °C while measuring the fluorescence intensity of the dye with the excitation and emission filters set to 465 and 590 nm, respectively. For data analysis, melting curves (fluorescence intensity changes at increasing temperatures) were fitted using a first derivative method ([51]) to determine the melting point Tm and the unfolding enthalpy ΔHu using the evaluation software provided by the manufacturer of the instrument. […] The heat capacity of protein unfolding (ΔCpu) was assumed to be independent of the temperature and estimated from the size of the protein using the equation ([52]), ΔCpu = −119 + 0.20(−907 + 93(#residues)). […] ([53]).
# as §1
# BRD4 BD1 W81A [14] = target: T1, BRD4 BD1 W81A; settings: TSA
# Description: as §5, §1
# BRD4 BD1 P82A [15] = target: T2, BRD4 BD1 P82A; settings: TSA
# Description: as §5, §1
# BRD4 BD1 L94A [16] = target: T3, BRD4 BD1 L94A; settings: TSA
# Description: as §5, §1
# BRD4 BD1 Y97F [17] = settings: TSA, 100 μM JQ1, pH 7.5, mean ± S.D.
# Description: as §5, §1
# BRD4 BD1 Y139F [18] = target: T4, BRD4 BD1 Y139F; settings: TSA
# Description: as §5, §1
# BRD4 BD1 N140A [19] = settings: TSA, 100 μM JQ1, pH 7.5, mean ± S.D.
# Description: as §5, §1
# BRD4 BD1 D144A [20] = target: T5, BRD4 BD1 D144A; settings: TSA
# Description: as §5, §1
# BRD4 BD1 D145A [21] = target: T6, BRD4 BD1 D145A; settings: TSA
# Description: as §5, §1
# BRD4 BD1 I146A [22] = target: T7, BRD4 BD1 I146A; settings: TSA
# Description: as §5, §1
# BRD4 BD1 M149A [23] = target: T8, BRD4 BD1 M149A; settings: TSA
# Description: as §5, §1
# BRD4 BD1 wild type [24] = settings: WT, TR-FRET competition, 50 nM protein, 200 nM biotinylated H4 peptide; IC50 expressed as KD; mean ± S.D.
# Description: as §1
# (§6) The experiments were performed in 384-well black small volume microtiter plates (Greiner) in a buffer composed of 50 mM Hepes, pH 7.5 (Applichem), 50 mM NaCl (Sigma), 400 mM KF (Sigma), 0.5 mM CHAPS (Sigma), and 0.05% BSA (Sigma) in a final volume of 5–10 μl (n = 4). BRD4 (100 nM) protein domains were mixed with 200 nM concentrations of the biotin-labeled histone peptides and incubated for 30 min at room temperature. The protein-peptide complexes at equilibrium were then detected with 5 nM Eu^3+ cryptate-conjugated streptavidin (CisBio) and 10 nM anti-His6-XL665 (Cisbio). To analyze the binding of mutated histone peptides at different ionic strengths, streptavidin Eu^3+ chelate (W1024, PerkinElmer Life Sciences) was used instead of cryptate as fluorescence donor, and KF was replaced by NaCl at concentrations of 20, 100, and 500 mM. After 3 h of further incubation at 4 °C, the plates were measured in a PheraStar reader (BMG Labtech) using the homogeneous time-resolved fluorescence module (excitation, 337 nm with 10 flashes; emission, 620 and 665 nm). […]
# BRD4 BD1 P82A [25] = target: T2, BRD4 BD1 P82A; settings: TR-FRET competition
# Description: as §1, §6
# BRD4 BD1 L94A [26] = target: T3, BRD4 BD1 L94A; settings: TR-FRET competition
# Description: as §1, §6
# BRD4 BD1 Y139F [27] = target: T4, BRD4 BD1 Y139F; settings: TR-FRET competition
# Description: as §1, §6
# BRD4 BD1 D144A [28] = target: T5, BRD4 BD1 D144A; settings: TR-FRET competition
# Description: as §1, §6
# BRD4 BD1 D145A [29] = target: T6, BRD4 BD1 D145A; settings: TR-FRET competition
# Description: as §1, §6
# BRD4 BD1 I146A [30] = target: T7, BRD4 BD1 I146A; settings: TR-FRET competition
# Description: as §1, §6
# BRD4 BD1 mutants [31] = tested on: BRD4 BD1 mutants; remark: listed apart in the source
# Description: The TR-FRET binding assay used to measure the interaction of BRD4 with acetylated peptides was a modified version of a previously described protocol ([18]). The experiments were performed in 384-well black small volume microtiter plates (Greiner) in a buffer composed of 50 mM Hepes, pH 7.5 (Applichem), 50 mM NaCl (Sigma), 400 mM KF (Sigma), 0.5 mM CHAPS (Sigma), and 0.05% BSA (Sigma) in a final volume of 5–10 μl (n = 4). BRD4 (100 nM) protein domains were mixed with 200 nM concentrations of the biotin-labeled histone peptides and incubated for 30 min at room temperature. The protein-peptide complexes at equilibrium were then detected with 5 nM Eu^3+ cryptate-conjugated streptavidin (CisBio) and 10 nM anti-His6-XL665 (Cisbio). To analyze the binding of mutated histone peptides at different ionic strengths, streptavidin Eu^3+ chelate (W1024, PerkinElmer Life Sciences) was used instead of cryptate as fluorescence donor, and KF was replaced by NaCl at concentrations of 20, 100, and 500 mM.
# The plates were then processed as described above. IC50 values were calculated by plotting the log [competitor/inhibitor] versus mean normalized response data from at least two independent experiments measured in triplicate and fitting it to a four-parameter equation with variable Hill slope, Y = bottom + (top-bottom)/(1 + 10^(logIC50 − ^X^) × Hill slope)), using the GraphPad Prism software. […]
# BRD4 BD1 wild type [32] = tested on: BRD4 BD1 wild type
# Description: as §2, §3, §4
# BRD4 BD1 Y97F [33] = settings: read-out: EC50 (protein stabilization)
# Description: as §2, §3, §4
# BRD4 BD1 N140A [34] = settings: read-out: EC50 (protein stabilization)
# Description: as §2, §3, §4
# [35] = tested on: Patient-derived NMC tumors; settings: xenograft, ref [17], [26]; cited from earlier work
# [36] = 100 μM JQ1, pH 7.5, mean ± S.D.
smiles,measurement,setting,value
"Cc1sc2c(c1C)C(c1ccc(Cl)cc1)=N[C@@H](CC(=O)NCCCCCNC(=O)c1ccc(-c3c4ccc(=[N+](C)C)cc-4oc4cc(N(C)C)ccc34)c(C(=O)[O-])c1)c1nnc(C)n1-2 [JQ1-TAMRA, 5-{[5-({[(6S)-4-(4-chlorophenyl)-2,3,9-trimethyl-6H-thieno[3,2-f][1,2,4]triazolo [4,3-a][1,4]diazepin-6-yl]acetyl}amino)pentyl]carbamoyl}-2-[6-(dimethylamino)-3-(dimethyliminio)-3H-xanthen-9-yl]benzoate]",KD (in words),BRD4,comparable with that of JQ1
"Cc1sc2c(c1C)C(c1ccc(Cl)cc1)=N[C@@H](CC(=O)OC(C)(C)C)c1nnc(C)n1-2 [JQ1, tert-butyl[(6S)-4-(4-chlorophenyl)-2,3,9-trimethyl-6H-thieno[3,2-f][1,2,4]triazolo[4,3-a][1,4]diazepin-6-yl]acetate]",half-fluorescence recovery (in words),BRD4 wild type,enhanced half-fluorescence recovery
same,stabilization by JQ1 (in words),"BRD4 BD1 mutants [1]; P82A, L94A, and I146A",moderate stabilization profile
same,stabilization by JQ1 (in words),"BRD4 BD1 mutants [1]; W81A, Y97F, N140A, and M149A",least stabilized by JQ1
same,stabilization by JQ1 (in words),"BRD4 BD1 mutants [1]; Y139F, D144A, and D145A",as strongly as wild-type BD1
same,EC50 increase vs wild type,BRD4 BD1 mutants [2],from 7-fold to >100-fold
same,Kd,BRD4 BD1 wild type [3],14.5 ± 3.3 nM
same,ΔG,BRD4 BD1 W81A [4],-34.7 kJ/mol
same,ΔG,BRD4 BD1 P82A [5],-37.9 kJ/mol
same,ΔG,BRD4 BD1 L94A [6],-40.4 kJ/mol
same,JQ1 binding compared with wild type (in words),BRD4 BD1 Y139F [7],not significantly different compared with wild-type BRD4 BD1
same,ΔG,BRD4 BD1 Y139F [7],-45.3 kJ/mol
same,ΔG,BRD4 BD1 D144A [8],-41.4 kJ/mol
same,JQ1 binding compared with wild type (in words),BRD4 BD1 D145A [9],not significantly different compared with wild-type BRD4 BD1
same,ΔG,BRD4 BD1 D145A [9],-44.5 kJ/mol
same,ΔG,BRD4 BD1 I146A [10],-36.4 kJ/mol
same,ΔG,BRD4 BD1 M149A [11],-37.5 kJ/mol
same,effect of mutation on JQ1 binding (in words),BRD4 BD1 mutants [12],strongest effects
same,ΔTm,"BRD4 BD1 wild type [13]; 100 μM JQ1, 100 mM HEPES pH 7.5, 150 mM NaCl, mean ± S.D.",9.6 ± 0.6 °C
same,Kd,BRD4 BD1 wild type [13]; extrapolated standard KD,1 nM
same,ΔG°,BRD4 BD1 W81A [14],-44.9 kJ/mol
same,−TΔS°,BRD4 BD1 W81A [14],-35.7 kJ/mol
same,ΔTm,BRD4 BD1 W81A [14]; [36],2.8 ± 0.4 °C
same,ΔH°b,BRD4 BD1 W81A [14]; 100 μM JQ1 vs DMSO,-9.2 kJ/mol
same,ΔG°,BRD4 BD1 P82A [15],-48.2 kJ/mol
same,−TΔS°,BRD4 BD1 P82A [15],-30.8 kJ/mol
same,ΔTm,BRD4 BD1 P82A [15]; [36],5.1 ± 0.2 °C
same,ΔH°b,BRD4 BD1 P82A [15]; 100 μM JQ1 vs DMSO,-17.4 kJ/mol
same,ΔG°,BRD4 BD1 L94A [16],-49.5 kJ/mol
same,−TΔS°,BRD4 BD1 L94A [16],-31.8 kJ/mol
same,ΔTm,BRD4 BD1 L94A [16]; [36],6.9 ± 0.4 °C
same,ΔH°b,BRD4 BD1 L94A [16]; 100 μM JQ1 vs DMSO,-17.7 kJ/mol
same,ΔTm,BRD4 BD1 Y97F [17],3.1 ± 0.6 °C
same,ΔG°,BRD4 BD1 Y139F [18],-51.5 kJ/mol
same,−TΔS°,BRD4 BD1 Y139F [18],-32.8 kJ/mol
same,ΔTm,BRD4 BD1 Y139F [18]; [36],9.8 ± 0.3 °C
same,ΔH°b,BRD4 BD1 Y139F [18]; 100 μM JQ1 vs DMSO,-18.7 kJ/mol
same,ΔTm,BRD4 BD1 N140A [19],3.3 ± 0.4 °C
same,ΔG°,BRD4 BD1 D144A [20],-51.3 kJ/mol
same,−TΔS°,BRD4 BD1 D144A [20],-41.4 kJ/mol
same,ΔTm,BRD4 BD1 D144A [20]; [36],9.5 ± 0.6 °C
same,ΔH°b,BRD4 BD1 D144A [20]; 100 μM JQ1 vs DMSO,-9.9 kJ/mol
same,ΔG°,BRD4 BD1 D145A [21],-51.2 kJ/mol
same,−TΔS°,BRD4 BD1 D145A [21],-44.7 kJ/mol
same,ΔTm,BRD4 BD1 D145A [21]; [36],9.2 ± 0.6 °C
same,ΔH°b,BRD4 BD1 D145A [21]; 100 μM JQ1 vs DMSO,-6.5 kJ/mol
same,ΔG°,BRD4 BD1 I146A [22],-49.2 kJ/mol
same,−TΔS°,BRD4 BD1 I146A [22],-40.4 kJ/mol
same,ΔTm,BRD4 BD1 I146A [22]; [36],6.1 ± 0.3 °C
same,ΔH°b,BRD4 BD1 I146A [22]; 100 μM JQ1 vs DMSO,-8.8 kJ/mol
same,ΔG°,BRD4 BD1 M149A [23],-45.7 kJ/mol
same,−TΔS°,BRD4 BD1 M149A [23],-45.3 kJ/mol
same,ΔTm,BRD4 BD1 M149A [23]; [36],3.2 ± 0.3 °C
same,ΔH°b,BRD4 BD1 M149A [23]; 100 μM JQ1 vs DMSO,-0.5 kJ/mol
same,Kd,BRD4 BD1 wild type [24],106 ± 13.9 nM
same,ΔG,BRD4 BD1 P82A [25],-38.2 kJ/mol
same,ΔG,BRD4 BD1 L94A [26],-41.6 kJ/mol
same,ΔG,BRD4 BD1 Y139F [27],-40.8 kJ/mol
same,ΔG,BRD4 BD1 D144A [28],-41.6 kJ/mol
same,increase of inhibitory activity vs wild type,BRD4 BD1 D145A [29],6 fold
same,ΔG,BRD4 BD1 D145A [29],-43.9 kJ/mol
same,ΔG,BRD4 BD1 I146A [30],-39.3 kJ/mol
same,inhibition of BRD4-H4 interaction vs wild type (in words),BRD4 BD1 mutants [31]; Leu-94 and Asp-145 mutated to alanine,better inhibitor
same,inhibition of BRD4-H4 interaction vs wild type (in words),BRD4 BD1 mutants [31]; P82A,slightly decreased
same,protein levels (in words),BRD4 BD1 wild type [32],dose-dependent and saturable increase of the TR-FRET signals
same,EC50,BRD4 BD1 wild type [32]; read-out: EC50 (protein stabilization),100 nM
same,EC50,BRD4 BD1 Y97F [33],> 10 µM
same,EC50,BRD4 BD1 N140A [34],8.4 µM
same,tumor inhibition (in words),[35],inhibited
